Results: the NIST ThermoML archive (doi:10.1021/acs.jced.5b00934)

Conditions: Liquid, Vibrating tube method

CC(C)(C)O [2-methylpropan-2-ol]
Conditions	mass density [kg/m3]
333.15 K, 50000 kPa	788.7
333.15 K, 52050 kPa	790.2
333.15 K, 55010 kPa	792.3
333.15 K, 57996 kPa	794.3
333.15 K, 60003 kPa	795.6
338.15 K, 100 kPa	737.1
338.15 K, 309 kPa	737.3
338.15 K, 505 kPa	737.6
338.15 K, 898 kPa	738.1
338.15 K, 1003 kPa	738.2
338.15 K, 2001 kPa	739.5
338.15 K, 3005 kPa	740.8
338.15 K, 5003 kPa	743.2
338.15 K, 7014 kPa	745.6
338.15 K, 9004 kPa	747.9
338.15 K, 10002 kPa	749
338.15 K, 11998 kPa	751.2
338.15 K, 14999 kPa	754.4
338.15 K, 17997 kPa	757.5
338.15 K, 20007 kPa	759.4
338.15 K, 21999 kPa	761.4
338.15 K, 25000 kPa	764.2
338.15 K, 27994 kPa	766.9
338.15 K, 30011 kPa	768.6
338.15 K, 32005 kPa	770.4
338.15 K, 32998 kPa	771.2
338.15 K, 33033 kPa	771.2
338.15 K, 34007 kPa	772
338.15 K, 35000 kPa	772.9
338.15 K, 38031 kPa	775.3
338.15 K, 40024 kPa	776.9
338.15 K, 41998 kPa	778.5
338.15 K, 43195 kPa	779.4
338.15 K, 44574 kPa	780.4
338.15 K, 46152 kPa	781.6
338.15 K, 48333 kPa	783.3
338.15 K, 50050 kPa	784.5
338.15 K, 52462 kPa	786.3
338.15 K, 56690 kPa	789.2
338.15 K, 60003 kPa	791.5
343.15 K, 99 kPa	731
343.15 K, 305 kPa	731.3
343.15 K, 503 kPa	731.6
343.15 K, 901 kPa	732.1
343.15 K, 1002 kPa	732.2
343.15 K, 2000 kPa	733.6
343.15 K, 3001 kPa	734.9
343.15 K, 5005 kPa	737.5
343.15 K, 7004 kPa	740
343.15 K, 9033 kPa	742.4
343.15 K, 10020 kPa	743.6
343.15 K, 12001 kPa	745.8
343.15 K, 15002 kPa	749.1
343.15 K, 18001 kPa	752.3
343.15 K, 20018 kPa	754.4
343.15 K, 21994 kPa	756.4
343.15 K, 25026 kPa	759.3
343.15 K, 27993 kPa	762.1
343.15 K, 30004 kPa	763.9
343.15 K, 32000 kPa	765.7
343.15 K, 32963 kPa	766.6
343.15 K, 33001 kPa	766.6
343.15 K, 34002 kPa	767.5
343.15 K, 35003 kPa	768.3
343.15 K, 38027 kPa	770.8
343.15 K, 39998 kPa	772.5
343.15 K, 42000 kPa	774.1
348.15 K, 98 kPa	725.1
348.15 K, 295 kPa	725.3
348.15 K, 498 kPa	725.7
348.15 K, 898 kPa	726.2
348.15 K, 1004 kPa	726.4
348.15 K, 2006 kPa	727.8
348.15 K, 3001 kPa	729.2
348.15 K, 5005 kPa	731.9
348.15 K, 6999 kPa	734.5
348.15 K, 9012 kPa	737
348.15 K, 10014 kPa	738.2
348.15 K, 12003 kPa	740.6
348.15 K, 14999 kPa	744
348.15 K, 17999 kPa	747.3
348.15 K, 20000 kPa	749.4
348.15 K, 21998 kPa	751.5
348.15 K, 24996 kPa	754.4
348.15 K, 27995 kPa	757.3
348.15 K, 30045 kPa	759.3
348.15 K, 32000 kPa	761
348.15 K, 32878 kPa	761.8
348.15 K, 33012 kPa	761.9
348.15 K, 34000 kPa	762.8
348.15 K, 35001 kPa	763.7
348.15 K, 38001 kPa	766.3
348.15 K, 39999 kPa	768
348.15 K, 41997 kPa	769.6
348.15 K, 44999 kPa	772
